Test results published in PMC6956098 (2019).

Columns and labels:
[1] = test system: VDBA14 aptamer, 5'-Cy5-labeled (DNA, aptamer) AGCAGCACAGAGGTCATGGGGGGTGTGACTTTGGTGTGCCTATGCGTGCTACGGAA; test: microscale thermophoresis; conditions: 100 mM NaCl, 5 mM KCl, 2 mM MgCl2, 1 mM CaCl2, 20 mM Tris-HCl pH 7.6, 10% ethanol, 35 °C
[2] = test system: VDBA14 aptamer, 5'-NH2-modified (in solution) (DNA, aptamer) AGCAGCACAGAGGTCATGGGGGGTGTGACTTTGGTGTGCCTATGCGTGCTACGGAA; test: microscale thermophoresis, displacement of Cy5-oligonucleotide; conditions: 100 mM NaCl, 5 mM KCl, 2 mM MgCl2, 1 mM CaCl2, pH 7.6, 35 °C, tracer displaced: 10 nM 5'-Cy5-AAAGTCACAC (O3), 10 nM aptamer
[3] = test system: VDBA14 aptamer, immobilized on microarray (DNA, aptamer) AGCAGCACAGAGGTCATGGGGGGTGTGACTTTGGTGTGCCTATGCGTGCTACGGAA; test: microarray fluorescence, displacement of Cy5-oligonucleotide; conditions: 100 mM NaCl, 5 mM KCl, 2 mM MgCl2, 1 mM CaCl2; 20 mM Tris-HCl pH 7.6; tracer displaced: 50 nM 5'-Cy5-AAAGTCACAC (O3); 78% maximal reduction at 2 μM

Row | Kd ([1]; no binding observed at room temperature) [nM] | apparent Kd [2] [nM] | binding [3] | binding ([1]; highest concentration 10 μM) | SMILES
1 | 14.99 | 1 ± 0.18 | yes | – | C=C1CC[C@H](O)C/C1=C/C=C1\CCC[C@]2(C)[C@@H]([C@H](C)CCCC(C)(C)O)CC[C@@H]12
2 | – | – | – | no | C=C1CC[C@H](O)C/C1=C/C=C1\CCC[C@]2(C)[C@@H]([C@H](C)CCCC(C)C)CC[C@@H]12
